Source: paper PMC10018782, “Citrus β-carotene hydroxylase 2 (BCH2) participates in xanthophyll synthesis by catalyzing the hydroxylation of β-carotene and compensates for BCH1 in citrus carotenoid metabolism” (Horticulture Research, 2022)

Tests used:
Test in all cases: functional complementation in beta-carotene-accumulating E. coli, HPLC of carotenoids
Type in all cases: cell-based
Conditions in all cases: E. coli BL21(DE3) with pACCAR16ΔcrtX, 16 °C, 16 h
CsBCH1 = biological target: T1, CsBCH1 (Citrus sinensis, UniProt Q0QVY5)
T1 construct: gene Chyb; full ORF in pHIS8 (His tag), E. coli BL21(DE3)
T1 sequence (Q0QVY5 1-311): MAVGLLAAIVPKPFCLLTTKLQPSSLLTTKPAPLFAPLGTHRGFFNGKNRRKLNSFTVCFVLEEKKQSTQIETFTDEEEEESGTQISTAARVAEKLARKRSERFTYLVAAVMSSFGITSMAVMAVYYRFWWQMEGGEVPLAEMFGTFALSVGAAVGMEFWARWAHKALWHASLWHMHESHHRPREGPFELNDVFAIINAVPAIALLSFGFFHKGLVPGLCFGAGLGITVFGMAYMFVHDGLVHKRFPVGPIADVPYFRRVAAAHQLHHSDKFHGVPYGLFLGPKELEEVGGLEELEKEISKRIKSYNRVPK

CsBCH2b = biological target: T2, CsBCH2b (Citrus sinensis, UniProt A0ACB8LPZ5)
T2 construct: gene KPL71_006397; full ORF in pHIS8 (His tag), E. coli BL21(DE3); allele found in pummelo and sweet orange, two non-synonymous sites versus CsBCH2a
T2 sequence (A0ACB8LPZ5 entry or part of it): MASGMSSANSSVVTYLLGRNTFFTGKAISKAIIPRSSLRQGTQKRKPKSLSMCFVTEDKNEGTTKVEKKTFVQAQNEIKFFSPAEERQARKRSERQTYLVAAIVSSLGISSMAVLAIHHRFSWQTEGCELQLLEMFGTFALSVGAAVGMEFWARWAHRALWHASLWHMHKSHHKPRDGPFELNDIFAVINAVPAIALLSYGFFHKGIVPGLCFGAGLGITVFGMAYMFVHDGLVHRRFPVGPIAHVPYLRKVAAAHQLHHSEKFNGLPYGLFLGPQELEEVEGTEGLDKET

CsBCH2a = biological target: T3, CsBCH2a (Citrus sinensis, UniProt A0ACB8LPZ5)
T3 construct: gene KPL71_006397; full ORF in pHIS8 (His tag), E. coli BL21(DE3); allele identical in mandarin and sweet orange, two non-synonymous sites versus CsBCH2b
T3 sequence (A0ACB8LPZ5 entry or part of it): as above

SMILES	functional complementation in beta-carotene-accumulating E. coli, HPLC of carote (CsBCH1; intermediate formed in the cells, hydroxylated on to zeaxanthin)	functional complementation in beta-carotene-accumulating E. coli, HPLC of carote (CsBCH2b)	functional complementation in beta-carotene-accumulating E. coli, HPLC of carote (CsBCH2a)	functional complementation in beta-carotene-accumulating E. coli, HPLC of carote (CsBCH1)
CC1=C(/C=C/C(C)=C/C=C/C(C)=C/C=C/C=C(C)/C=C/C=C(C)/C=C/C2=C(C)C[C@@H](O)CC2(C)C)C(C)(C)CCC1 [β-cryptoxanthin]	mono-hydroxylated intermediate β-cryptoxanthin and the di-hydroxylated product zeaxanthin			
CC1=C(/C=C/C(C)=C/C=C/C(C)=C/C=C/C=C(C)/C=C/C=C(C)/C=C/C2=C(C)CCCC2(C)C)C(C)(C)CCC1 [β-carotene]		CsBCH2a and CsBCH2b hydroxylated β-carotene to generate only β-cryptoxanthin in E. coli	CsBCH2a and CsBCH2b hydroxylated β-carotene to generate only β-cryptoxanthin in E. coli	CsBCH1 effectively hydroxylated the two β-rings of β-carotene
